Laboratory results reported in ChEMBL document CHEMBL1201862, “PubChem BioAssay data set” (2004).
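Growth conditions: 96-well plates. Treatment: test compound, 48 hours, 5 concentrations. Analysis: linear interpolation between bracketing concentrations; unreached endpoints set to highest concentration. GI50 = concentration required for 50% inhibition of growth.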 Calls of active or inactive are those of the source. No stated cut-off is given here; in the data, active = GI50 up to about 1.1 µM and inactive = higher.

Experiments:
Test in all cases: NCI anticancer screen, dose series, 48 h
[1] = system: DU-145
[2] = system: EKVX
[3] = system: HCC 2998
[4] = system: HCT-15
[5] = system: HL-60
[6] = system: HOP-62
[7] = system: HOP-92
[8] = system: HT-29
[9] = system: K562
[10] = system: MCF7
[11] = system: MDA-N
[12] = system: NCI-H23
[13] = system: NCI-H460
[14] = system: OVCAR-8
[15] = system: RPMI-8226
[16] = system: SF-295
[17] = system: SK-OV-3
[18] = system: SR
[19] = system: OVCAR-4
[20] = system: SK-MEL-2

Row | SMILES | GI50 [1] | GI50 [2] | GI50 [3] | GI50 [4] | GI50 [5] | GI50 [6] | GI50 [7] | GI50 [8] | GI50 [9] | GI50 [10] | GI50 [11] | GI50 [12] | GI50 [13] | GI50 [14] | GI50 [15] | GI50 [16] | GI50 [17] | GI50 [18] | GI50 [19] | GI50 [20]
1 | CCn1c(-c2ccccc2)cs/c1=N\C(P(=O)(O)O)P(=O)(O)O | > 100 µM (inactive) | > 100 µM (inactive) | > 100 µM (inactive) | > 100 µM | > 100 µM (inactive) | > 100 µM (inactive) | > 100 µM (inactive) | > 100 µM (inactive) | > 100 µM (inactive) | > 100 µM (inactive) | > 100 µM (inactive) | > 100 µM (inactive) | > 100 µM (inactive) | > 100 µM (inactive) | > 100 µM (inactive) | > 100 µM (inactive) | > 100 µM (inactive) | > 100 µM (inactive) |  | 
2 | CN(C)/C=N/[C@@H](C(=O)O)c1ccccc1 | > 100 µM (inactive) | > 100 µM (inactive) | > 100 µM (inactive) | > 100 µM | > 100 µM (inactive) | > 100 µM (inactive) | > 100 µM (inactive) | > 100 µM (inactive) | > 100 µM (inactive) | > 100 µM (inactive) | > 100 µM (inactive) | > 100 µM (inactive) | > 100 µM (inactive) | > 100 µM (inactive) | > 100 µM (inactive) | > 100 µM (inactive) | > 100 µM (inactive) | > 100 µM (inactive) | > 100 µM (inactive) | 
3 | CC(C)OC(=O)NNc1c(Cl)cc(Cl)cc1Cl | > 100 µM (inactive) | 31.6 µM (inactive) | 89.9 µM (inactive) | 58.5 µM | 68.9 µM (inactive) | > 100 µM (inactive) | 23.2 µM (inactive) | > 100 µM (inactive) | 55.6 µM (inactive) | 40.3 µM (inactive) | 55 µM (inactive) | > 100 µM (inactive) | 63.7 µM (inactive) | > 100 µM (inactive) | 43.4 µM (inactive) | 77.6 µM (inactive) | > 100 µM (inactive) | 55.3 µM (inactive) |  | 55.6 µM (inactive)
4 | CCNC1=C(NC(=O)c2ccc(F)cc2)C(=O)c2ccccc2C1=O | > 100 µM (inactive) | > 100 µM (inactive) | 34.8 µM (inactive) | 30.5 µM | 40.3 µM (inactive) | > 100 µM (inactive) | > 100 µM (inactive) | 22.2 µM (inactive) | 65.8 µM (inactive) | 30.3 µM (inactive) | 33.6 µM (inactive) | 34.6 µM (inactive) | 50.1 µM (inactive) | 32.7 µM (inactive) | > 100 µM (inactive) | 52.6 µM (inactive) | 18.5 µM (inactive) | 48.4 µM (inactive) | 40.1 µM (inactive) | 
5 | O=C1C(Cl)C(c2cccc(Cl)c2)N1c1ccc(-n2c(S)nc3ccccc3c2=O)cc1 (configuration not stated) | 35.2 µM (inactive) | 32.1 µM (inactive) | 14.4 µM (inactive) | 1.02 µM | 22.1 µM (inactive) | 23.9 µM (inactive) | 19.9 µM (inactive) | 18.8 µM (inactive) | 17.9 µM (inactive) | 14.7 µM (inactive) | 19.1 µM (inactive) | 19.6 µM (inactive) | 16.5 µM (inactive) | 37.3 µM (inactive) | 17.9 µM (inactive) | 19.2 µM (inactive) | 20.6 µM (inactive) | 10.7 µM (inactive) | 13.6 µM (inactive) | 
6 | Cc1cc(C)c(S(=O)(=O)N(CCCN)OCCON(CCCN)S(=O)(=O)c2c(C)cc(C)cc2C)c(C)c1 | 5.68 µM (inactive) | 5.24 µM (inactive) | 1.9 µM (inactive) | 25.7 µM |  | 3.01 µM (inactive) | 6.24 µM (inactive) | 10 µM (inactive) | 2.96 µM (inactive) | 2.59 µM (inactive) | 2.74 µM (inactive) | 2.59 µM (inactive) | 2.67 µM (inactive) | 12.6 µM (inactive) | 2.05 µM (inactive) | 20.2 µM (inactive) | 5.01 µM (inactive) | 3.12 µM (inactive) | 3.3 µM (inactive) | 1.64 µM (inactive)
7 | CC(C)(C)OC(=O)C1CCC/C1=N/Nc1ccc([N+](=O)[O-])cc1[N+](=O)[O-] (configuration not stated) | 47.2 µM (inactive) | 24.7 µM (inactive) | 42.9 µM (inactive) | 39.4 µM | 44.3 µM (inactive) | 45.6 µM (inactive) | 47.1 µM (inactive) | 36.5 µM (inactive) | 15.7 µM (inactive) | 30 µM (inactive) | 30.8 µM (inactive) | 18 µM (inactive) | 37.9 µM (inactive) | 27.5 µM (inactive) | 32 µM (inactive) | 25 µM (inactive) | 43 µM (inactive) | 26.1 µM (inactive) | 74.5 µM (inactive) | 
8 | CC(=O)CC(=O)N1CCSC1=S | > 10 µM (inactive) | > 10 µM (inactive) | > 10 µM (inactive) | > 10 µM | > 10 µM (inactive) | > 10 µM (inactive) | > 10 µM (inactive) | > 10 µM (inactive) | > 10 µM (inactive) | > 10 µM (inactive) | > 10 µM (inactive) | > 10 µM (inactive) | > 10 µM (inactive) | > 10 µM (inactive) | > 10 µM (inactive) | > 10 µM (inactive) | > 10 µM (inactive) | > 10 µM (inactive) |  | > 10 µM (inactive)
9 | CN(C)C(=O)Oc1ccc(-c2cn3cc(NC(=O)c4ccccc4)ccc3n2)cc1 | > 100 µM (inactive) | > 100 µM (inactive) | 52 µM (inactive) | > 100 µM |  | > 100 µM (inactive) | > 100 µM (inactive) | 87.3 µM (inactive) | 19.5 µM (inactive) | 31.7 µM (inactive) | > 100 µM (inactive) | > 100 µM (inactive) | 73.3 µM (inactive) | > 100 µM (inactive) | 19.1 µM (inactive) | > 100 µM (inactive) | > 100 µM (inactive) | 29.3 µM (inactive) | 55 µM (inactive) | > 100 µM (inactive)
10 | COC(=O)C1=Nc2c(C)nn(-c3ccccc3)c2N=C(c2ccc(C)cc2)C1 | > 10 µM (inactive) |  | > 10 µM (inactive) | > 10 µM | > 10 µM (inactive) | > 10 µM (inactive) | > 10 µM (inactive) | > 10 µM (inactive) | > 10 µM (inactive) | > 10 µM (inactive) | > 10 µM (inactive) | > 10 µM (inactive) |  | > 10 µM (inactive) | > 10 µM (inactive) | > 10 µM (inactive) | > 10 µM (inactive) | > 10 µM (inactive) | > 10 µM (inactive) | 
11 | CCSCCCN(CCCSCC)CCCSCC | > 100 µM (inactive) |  | > 100 µM (inactive) | > 100 µM | 80.9 µM (inactive) | > 100 µM (inactive) | 5.16 µM (inactive) | > 100 µM (inactive) | > 100 µM (inactive) | > 100 µM (inactive) | > 100 µM (inactive) | > 100 µM (inactive) | > 100 µM (inactive) | > 100 µM (inactive) |  | > 100 µM (inactive) | > 100 µM (inactive) | > 100 µM (inactive) | > 100 µM (inactive) | 
12 | C=C1CC2CC(=O)C(O)C(C1)C2 (configuration not stated) | > 100 µM (inactive) | > 100 µM (inactive) | > 100 µM (inactive) | > 100 µM | > 100 µM (inactive) | > 100 µM (inactive) | > 100 µM (inactive) | > 100 µM (inactive) | > 100 µM (inactive) | > 100 µM (inactive) | > 100 µM (inactive) | 90.8 µM (inactive) | > 100 µM (inactive) | > 100 µM (inactive) | > 100 µM (inactive) | > 100 µM (inactive) | > 100 µM (inactive) | > 100 µM (inactive) |  | 
13 | CCn1c(=O)c2c(=O)[nH][nH]c2c2ccccc21 | > 100 µM (inactive) | > 100 µM (inactive) | > 100 µM (inactive) | > 100 µM | > 100 µM (inactive) | > 100 µM (inactive) | > 100 µM (inactive) | > 100 µM (inactive) | > 100 µM (inactive) | > 100 µM (inactive) | > 100 µM (inactive) | > 100 µM (inactive) | > 100 µM (inactive) | > 100 µM (inactive) | > 100 µM (inactive) | > 100 µM (inactive) |  | > 100 µM (inactive) | > 100 µM (inactive) | 
14 | O=C(O)C(Br)C(Br)c1ccccc1[N+](=O)[O-] (configuration not stated) | > 100 µM (inactive) | > 100 µM (inactive) | > 100 µM (inactive) | > 100 µM |  | 96.2 µM (inactive) | > 100 µM (inactive) | > 100 µM (inactive) | > 100 µM (inactive) | > 100 µM (inactive) | > 100 µM (inactive) | > 100 µM (inactive) | > 100 µM (inactive) | > 100 µM (inactive) | > 100 µM (inactive) | > 100 µM (inactive) | > 100 µM (inactive) | > 100 µM (inactive) | > 100 µM (inactive) | > 100 µM (inactive)
15 | C[C@@]1(O)C2C3CC4C5C3C1[C@](O)(C42)[C@H]5Br (some centres not stated) | > 100 µM (inactive) | > 100 µM (inactive) | > 100 µM (inactive) | > 100 µM | > 100 µM (inactive) | > 100 µM (inactive) | > 100 µM (inactive) | > 100 µM (inactive) | > 100 µM (inactive) | > 100 µM (inactive) | > 100 µM (inactive) | > 100 µM (inactive) | > 100 µM (inactive) | > 100 µM (inactive) |  | > 100 µM (inactive) |  | > 100 µM (inactive) | > 100 µM (inactive) | > 100 µM (inactive)
